From patent EP2951180B1, “2,6,7,8 SUBSTITUTED PURINES AS HDM2 INHIBITORS” (Merck Sharp & Dohme Corp., priority 2013, dated 2014)
pIC50: −log10 of the molar value.

The compounds below were run against T1, HDM2 (Homo sapiens, UniProt Q00987) (assay: HDM2 FRET assay (inhibition of binding of FITC labeled p53-pocket peptide to HDM2)). Conditions: Table 11; read-out: FRET IC50.
T1 construct: Thioredoxin (N); made in house; host or cells: E. coli strain BL21(DE3)Rosetta
Summary of the method: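 Final: 0.5 nM His-HDM2, 3 nM FITC peptide, 0.25 nM Tb anti-His Ab; PBS, 0.01% BSA, 0.01% Tween-20; 0.1% DMSO.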

T1 sequence (Q00987 17-125): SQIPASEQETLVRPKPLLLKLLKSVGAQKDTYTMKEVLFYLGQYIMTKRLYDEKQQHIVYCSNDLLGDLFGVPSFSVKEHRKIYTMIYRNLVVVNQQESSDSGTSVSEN

In order of falling pIC50:
1. CC(C)CN(C)c1nc2nc(C(=O)O)nc(N[C@H](C)C3CCC3)c2n1C[C@H]1CC[C@H](C)CC1 [Example 11.30, 6-{[(1R)-1-cyclobutylethyl]amino}-7-[(trans-4-methylcyclohexyl)methyl]-8-[methyl(2-methylpropyl)amino] -7H-purine-2-carboxylic acid]  8.78
2. C[C@@H](Nc1nc(-c2n[nH]c(=O)o2)nc2nc(N3CCOC[C@H]3c3ccccc3)n(C[C@H]3CC[C@H](C)CC3)c12)C1CCC1 [Example 11.55, 5-(6-{[(1R)-1-cyclobutylethyl]amino}-7-[(trans-4-methylcyclohexyl)methyl]-8-[(3R)-3-phenylmorpholin-4-yl]-7H-purin-2-yl)-1,3,4-oxadiazol-2(3H)-one]  8.67
3. COc1cccc(C2CCCCN2c2nc3nc(C(=O)O)nc(N[C@H](C)C4CCC4)c3n2C[C@H]2CC[C@H](C)CC2)c1 (stereo partly drawn) [Example 11.31, 6-{[(1R)-1-cyclobutylethyl]amino}-8-[2-(3-methoxyphenyl)piperidin-1-yl]-7-[(trans-4-methylcyclohexyl)methyl]-7H-purine-2-carboxylic acid]  8.65
4. C[C@@H](Nc1nc(C(=O)O)nc2nc(N3CCOC[C@H]3c3ccccc3)n(C[C@H]3CC[C@H](C)CC3)c12)C(F)(F)F [Example 11.51, 7-[(trans-4-methylcyclohexyl)methyl]-8-[(3R)-3-phenylmorpholin-4-yl]-6-{[(1R)-2,2,2-trifluoro-1-methylethyl]amino}-7H-purine-2-carboxylic acid]  8.65
5. CC(C)C1CCCCN1c1nc2nc(C(=O)O)nc(N[C@H](C)C3CCC3)c2n1C[C@H]1CC[C@H](C)CC1 (stereo partly drawn) [Example 11.54, 6-{[(1R)-1-cyclobutylethyl]amino}-7-[(trans-4-methylcyclohexyl)methyl]-8-[2-(1-methylethyl)piperidin-1-yl] -7H-purine-2-carboxylic acid]  8.48
6. CCC1CCCCN1c1nc2nc(C(=O)O)nc(N[C@H](C)C3CCC3)c2n1C[C@H]1CC[C@H](C)CC1 (stereo partly drawn) [Example 11.52, 6-{[(1R)-1-cyclobutylethyl]amino}-8-(2-ethylpiperidin-1-yl)-7-[(trans-4-methylcyclohexyl)methyl]-7H-purine-2-carboxylic acid]  8.47
7. C[C@@H](Nc1nc(-c2noc(=O)[nH]2)nc2nc(N3CCCC3C(C)(C)C)n(C[C@H]3CC[C@H](C)CC3)c12)C1CCC1 (stereo partly drawn) [Example 11.36, 3-{8-(2-tert-butylpyrrolidin-1-yl)-6-{[(1R)-1-cyclobutylethyl]amino}-7-[(trans-4-methylcyclohexyl)methyl]-7H-purin-2-yl}-1,2,4-oxadiazol-5(2H)-one]  8.41
8. CCCC1CCCN1c1nc2nc(-c3noc(=O)[nH]3)nc(N[C@H](C)C3CCC3)c2n1C[C@H]1CC[C@H](C)CC1 (stereo partly drawn) [Example 11.35, 3-[6-{[(1R)-1-cyclobutylethyl]amino}-7-[(trans-4-methylcyclohexyl)methyl]-8-(2-propylpyrrolidin-1-yl)-7H-purin-2-yl]-1,2,4-oxadiazol-5(2H)-one]  8.36
9. CC(C)C1CCCN1c1nc2nc(-c3noc(=O)[nH]3)nc(N[C@H](C)C3CCC3)c2n1C[C@H]1CC[C@H](C)CC1 (stereo partly drawn) [Example 11.46, 3-(6-{[(1R)-1-cyclobutylethyl]amino}-7-[(trans-4-methylcyclohexyl)methyl]-8-[2-(1-methylethyl)pyrrolidin-1-yl]-7H-purin-2-yl)-1,2,4-oxadiazol-5(2H)-one]  8.35
10. C[C@@H](Nc1nc(-c2noc(=O)[nH]2)nc2nc(N3CCOC[C@H]3c3ccccc3)n(C[C@H]3CC[C@H](C)CC3)c12)C(F)(F)F [Example 11.53, 3-(7-[(trans-4-methylcyclohexyl)methyl]-8-[(3R)-3-phenylmorpholin-4-yl]-6-{[(1R)-2,2,2-trifluoro-1-methylethyl]amino}-7H-purin-2-yl)-1,2,4-oxadiazol-5(4H)-one]  8.33
11. C[C@@H](Nc1nc(-c2noc(=O)[nH]2)nc2nc(N3CCCC3C3CCC3)n(C[C@H]3CC[C@H](C)CC3)c12)C1CCC1 (stereo partly drawn) [Example 11.38, 3-(6-{[(1R)-1-cyclobutylethyl]amino}-8-(2-cyclobutylpyrrolidin-1-yl)-7-[(trans-4-methylcyclohexyl)methyl]-7H-purin-2-yl)-1,2,4-oxadiazol-5(2H)-one]  8.31
12. CCC1CCCN1c1nc2nc(-c3noc(=O)[nH]3)nc(N[C@H](C)C3CCC3)c2n1C[C@H]1CC[C@H](C)CC1 (stereo partly drawn) [Example 11.33, 3-(6-{[(1R)-1-cyclobutylethyl]amino}-8-(2-ethylpyrrolidin-1-yl)-7-[(trans-4-methylcyclohexyl)methyl]-7H-purin-2-yl)-1,2,4-oxadiazol-5(2H)-one]  8.27
13. C[C@@H](Nc1nc(-c2noc(=O)[nH]2)nc2nc(N(C)CC3CC3)n(C[C@H]3CC[C@H](C)CC3)c12)C1CCC1 [Example 11.42, 3-(6-{[(1R)-1-cyclobutylethyl]amino}-8-[(cyclopropylmethyl) (methyl)amino]-7-[(trans-4-methylcyclohexyl)methyl]-7H-purin-2-yl)-1,2,4-oxadiazol-5(2H)-one]  8.27
14. CC(C)CN(C)c1nc2nc(-c3noc(=O)[nH]3)nc(N[C@H](C)C3CCC3)c2n1C[C@H]1CC[C@H](C)CC1 [Example 11.48, 3-(6-{[(1R)-1-cyclobutylethyl]amino}-7-[(trans-4-methylcyclohexyl)methyl]-8-[methyl(2-methylpropyl)amino] -7H-purin-2-yl)-1,2,4-oxadiazol-5(4H)-one]  8.17
15. C[C@@H](Nc1nc(-c2noc(=O)[nH]2)nc2nc(N3CCCC3CC(C)(C)C)n(C[C@H]3CC[C@H](C)CC3)c12)C1CCC1 (stereo partly drawn) [Example 11.37, 3-(6-{[(1R)-1-cyclobutylethyl]amino}-8-[2-(2,2-dimethylpropyl)pyrrolidin-1-yl]-7-[(trans-4-methylcyclohexyl)methyl]-7H-purin-2-yl)-1,2,4-oxadiazol-5(2H)-one]  8.16
16. CC1CCCCN1c1nc2nc(-c3noc(=O)[nH]3)nc(N[C@H](C)C3CCC3)c2n1C[C@H]1CC[C@H](C)CC1 (stereo partly drawn) [Example 11.47, 3-[6-{[(1R)-1-cyclobutylethyl]amino}-7-[(trans-4-methylcyclohexyl)methyl]-8-(2-methylpiperidin-1-yl)-7H-purin-2-yl]-1,2,4-oxadiazol-5(4H)-one]  8.14
17. CCOCC1CCCN1c1nc2nc(-c3noc(=O)[nH]3)nc(N[C@H](C)C3CCC3)c2n1C[C@H]1CC[C@H](C)CC1 (stereo partly drawn) [Example 11.32, 3-(6-{[(1R)-1-cyclobutylethyl]amino}-8-[2-(ethoxymethyl)pyrrolidin-1-yl]-7-[(trans-4-methylcyclohexyl)methyl]-7H-purin-2-yl)-1,2,4-oxadiazol-5(2H)-one]  8.10
18. C[C@@H](Nc1nc(-c2noc(=O)[nH]2)nc2nc(N3CCCCC3CF)n(C[C@H]3CC[C@H](C)CC3)c12)C1CCC1 (stereo partly drawn) [Example 11.40, 3-(6-{[(1R)-1-cyclobutylethyl]amino}-8-[2-(fluoromethyl)piperidin-1-yl]-7-[(trans-4-methylcyclohexyl)methyl]-7H-purin-2-yl)-1,2,4-oxadiazol-5(2H)-one]  8.07
19. COCC1CCCCN1c1nc2nc(-c3noc(=O)[nH]3)nc(N[C@H](C)C3CCC3)c2n1C[C@H]1CC[C@H](C)CC1 (stereo partly drawn) [Example 11.39, 3-(6-{[(1R)-1-cyclobutylethyl]amino}-8-[2-(methoxymethyl)piperidin-1-yl]-7-[(trans-4-methylcyclohexyl)methyl]-7H-purin-2-yl)-1,2,4-oxadiazol-5(2H)-one]  8.01
20. CCCN(C)c1nc2nc(-c3noc(=O)[nH]3)nc(N[C@H](C)C3CCC3)c2n1C[C@H]1CC[C@H](C)CC1 [Example 11.44, 3-(6-{[(1R)-1-cyclobutylethyl]amino}-7-[(trans-4-methylcyclohexyl)methyl]-8-[methyl(propyl)amino]-7H-purin-2-yl)-1,2,4-oxadiazol-5(2H)-one]  8.00
21. C[C@@H](Nc1nc(C(=O)O)nc2nc(N3CCCCC3Cc3ccc(F)cc3)n(C[C@H]3CC[C@H](C)CC3)c12)C1CCC1 (stereo partly drawn) [Example 11.56, 6-{[(1R)-1-cyclobutylethyl]amino}-8-[2-(4-fluorobenzyl)piperidin-1-yl]-7-[(trans-4-methylcyclohexyl)methyl]-7H-purine-2-carboxylic acid]  7.94
22. CC(C)CC1COCCN1c1nc2nc(-c3noc(=O)[nH]3)nc(N[C@H](C)C3CCC3)c2n1C[C@H]1CC[C@H](C)CC1 (stereo partly drawn) [Example 11.41, 3-(6-{[(1R)-1-cyclobutylethyl]amino}-7-[(trans-4-methylcyclohexyl)methyl]-8-[3-(2-methylpropyl)morpholin-4-yl]-7H-purin-2-yl)-1,2,4-oxadiazol-5(2H)-one]  7.83
23. C[C@@H](Nc1nc(-c2noc(=O)[nH]2)nc2nc(N(C)CC(C)(C)C)n(C[C@H]3CC[C@H](C)CC3)c12)C1CCC1 [Example 11.43, 3-(6-{[(1R)-1-cyclobutylethyl]amino}-8-[(2,2-dimethylpropyl)(methyl)amino]-7-[(trans-4-methylcyclohexyl)methyl]-7H-purin-2-yl)-1,2,4-oxadiazol-5(2H)-one]  7.71
24. CC1CCCN1c1nc2nc(-c3noc(=O)[nH]3)nc(N[C@H](C)C3CCC3)c2n1C[C@H]1CC[C@H](C)CC1 (stereo partly drawn) [Example 11.34, 3-[6-{[(1R)-1-cyclobutylethyl]amino}-7-[(trans-4-methylcyclohexyl)methyl]-8-(2-methylpyrrolidin-1-yl)-7H-purin-2-yl]-1,2,4-oxadiazol-5(2H)-one]  7.60
25. C[C@@H](Nc1nc(-c2noc(=O)[nH]2)nc2nc(N3CCCCC3Cc3ccccc3)n(C[C@H]3CC[C@H](C)CC3)c12)C1CCC1 (stereo partly drawn) [Example 11.45, 3-{8-(2-benzylpiperidin-1-yl)-6-{[(1R)-1-cyclobutylethyl]amino}-7-[(trans-4-methylcyclohexyl)methyl]-7H-purin-2-yl}-1,2,4-oxadiazol-5(2H)-one]  7.09
